Data as given in ChEMBL document CHEMBL4507264, “Data for DCP probe BAY-7598” (2021).

How the values were obtained:
[1] = target: Serine/threonine-protein kinase Chk1 (Homo sapiens) (UniProt O14757); details: Compound concentration 1000.0 nM
[2] = target: Serine/threonine-protein kinase OSR1 (Homo sapiens) (UniProt O95747); details: Compound concentration 1000.0 nM
[3] = target: Serine/threonine-protein kinase RIO1 (Homo sapiens) (UniProt Q9BRS2); details: Compound concentration 1000.0 nM
[4] = target: Muscarinic acetylcholine receptor M4 (Homo sapiens) (UniProt P08173); details: Compound concentration 10.0 uM
[5] = target: Casein kinase I isoform epsilon (Homo sapiens) (UniProt P49674); details: Compound concentration 1000.0 nM
[6] = target: Tyrosine-protein kinase SYK (Homo sapiens) (UniProt P43405); details: Compound concentration 1000.0 nM
[7] = test system: Phosphatidylinositol 4,5-bisphosphate 3-kinase catalytic subunit alpha isoform (Homo sapiens), P42336 [C420R]; details: Compound concentration 1000.0 nM
[8] = target: Mitogen-activated protein kinase 11 (Homo sapiens) (UniProt Q15759); details: Compound concentration 1000.0 nM
[9] = target: Microtubule-associated serine/threonine-protein kinase 1 (Homo sapiens) (UniProt Q9Y2H9); details: Compound concentration 1000.0 nM
[10] = test system: Phosphatidylinositol 4,5-bisphosphate 3-kinase catalytic subunit alpha isoform (Homo sapiens), P42336 [E542K]; details: Compound concentration 1000.0 nM
[11] = target: Tyrosine-protein kinase Fyn (Homo sapiens) (UniProt P06241); details: Compound concentration 1000.0 nM
[12] = target: MAP kinase-interacting serine/threonine-protein kinase 1 (Homo sapiens) (UniProt Q9BUB5); details: Compound concentration 1000.0 nM
[13] = target: 5-hydroxytryptamine receptor 5A (Homo sapiens) (UniProt P47898); details: Compound concentration 10.0 uM
5-hydroxytryptamine receptor 5A (Homo sapiens), sequence (P47898 whole entry): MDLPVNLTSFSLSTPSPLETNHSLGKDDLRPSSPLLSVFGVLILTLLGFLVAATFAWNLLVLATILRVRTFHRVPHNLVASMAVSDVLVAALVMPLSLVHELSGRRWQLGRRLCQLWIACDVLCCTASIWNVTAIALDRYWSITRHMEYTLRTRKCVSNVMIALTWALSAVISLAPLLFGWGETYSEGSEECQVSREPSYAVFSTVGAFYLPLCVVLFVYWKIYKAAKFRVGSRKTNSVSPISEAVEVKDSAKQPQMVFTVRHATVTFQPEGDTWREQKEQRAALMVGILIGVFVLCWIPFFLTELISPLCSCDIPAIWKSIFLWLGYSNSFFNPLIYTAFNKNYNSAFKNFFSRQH

[14] = target: Histamine H2 receptor (Homo sapiens) (UniProt P25021); details: Compound concentration 10.0 uM
[15] = target: Myosin light chain kinase 2, skeletal/cardiac muscle (Homo sapiens) (UniProt Q9H1R3); details: Compound concentration 1000.0 nM
[16] = target: Ephrin type-A receptor 3 (Homo sapiens) (UniProt P29320); details: Compound concentration 1000.0 nM
[17] = target: RAC-gamma serine/threonine-protein kinase (Homo sapiens) (UniProt Q9Y243); details: Compound concentration 1000.0 nM
[18] = target: Maternal embryonic leucine zipper kinase (Homo sapiens) (UniProt Q14680); details: Compound concentration 1000.0 nM
Maternal embryonic leucine zipper kinase (Homo sapiens), sequence (Q14680 whole entry, looked up): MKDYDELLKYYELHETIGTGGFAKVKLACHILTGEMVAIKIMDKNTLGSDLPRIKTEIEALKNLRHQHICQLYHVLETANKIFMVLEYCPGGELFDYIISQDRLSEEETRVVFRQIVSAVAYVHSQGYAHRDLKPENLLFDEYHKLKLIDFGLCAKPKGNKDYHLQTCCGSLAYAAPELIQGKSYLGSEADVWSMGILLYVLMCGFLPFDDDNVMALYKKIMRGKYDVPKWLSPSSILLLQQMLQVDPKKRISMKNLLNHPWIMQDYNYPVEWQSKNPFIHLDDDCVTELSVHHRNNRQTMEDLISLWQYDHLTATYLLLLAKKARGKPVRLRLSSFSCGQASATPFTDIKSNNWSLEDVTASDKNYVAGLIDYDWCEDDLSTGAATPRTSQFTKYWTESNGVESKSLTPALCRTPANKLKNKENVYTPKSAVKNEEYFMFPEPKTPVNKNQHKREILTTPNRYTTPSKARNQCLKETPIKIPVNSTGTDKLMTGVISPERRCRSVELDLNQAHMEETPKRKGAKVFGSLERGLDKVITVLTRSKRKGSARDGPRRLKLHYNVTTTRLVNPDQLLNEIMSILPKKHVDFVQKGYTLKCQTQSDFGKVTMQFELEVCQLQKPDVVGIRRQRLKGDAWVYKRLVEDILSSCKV

[19] = test system: eIF-2-alpha kinase GCN2 (Homo sapiens), Q9P2K8 [S808G]; details: Compound concentration 1000.0 nM
[20] = test system: Phosphatidylinositol 4,5-bisphosphate 3-kinase catalytic subunit alpha isoform (Homo sapiens), P42336 [E545K]; details: Compound concentration 1000.0 nM
[21] = target: Alpha-1B adrenergic receptor (Homo sapiens) (UniProt P35368); details: Compound concentration 10.0 uM
[22] = target: Serine/threonine-protein kinase 4 (Homo sapiens) (UniProt Q13043); details: Compound concentration 1000.0 nM
[23] = target: Ribosomal protein S6 kinase alpha-5 (Homo sapiens) (UniProt O75582); details: Compound concentration 1000.0 nM
Ribosomal protein S6 kinase alpha-5 (Homo sapiens), sequence (O75582 whole entry, looked up): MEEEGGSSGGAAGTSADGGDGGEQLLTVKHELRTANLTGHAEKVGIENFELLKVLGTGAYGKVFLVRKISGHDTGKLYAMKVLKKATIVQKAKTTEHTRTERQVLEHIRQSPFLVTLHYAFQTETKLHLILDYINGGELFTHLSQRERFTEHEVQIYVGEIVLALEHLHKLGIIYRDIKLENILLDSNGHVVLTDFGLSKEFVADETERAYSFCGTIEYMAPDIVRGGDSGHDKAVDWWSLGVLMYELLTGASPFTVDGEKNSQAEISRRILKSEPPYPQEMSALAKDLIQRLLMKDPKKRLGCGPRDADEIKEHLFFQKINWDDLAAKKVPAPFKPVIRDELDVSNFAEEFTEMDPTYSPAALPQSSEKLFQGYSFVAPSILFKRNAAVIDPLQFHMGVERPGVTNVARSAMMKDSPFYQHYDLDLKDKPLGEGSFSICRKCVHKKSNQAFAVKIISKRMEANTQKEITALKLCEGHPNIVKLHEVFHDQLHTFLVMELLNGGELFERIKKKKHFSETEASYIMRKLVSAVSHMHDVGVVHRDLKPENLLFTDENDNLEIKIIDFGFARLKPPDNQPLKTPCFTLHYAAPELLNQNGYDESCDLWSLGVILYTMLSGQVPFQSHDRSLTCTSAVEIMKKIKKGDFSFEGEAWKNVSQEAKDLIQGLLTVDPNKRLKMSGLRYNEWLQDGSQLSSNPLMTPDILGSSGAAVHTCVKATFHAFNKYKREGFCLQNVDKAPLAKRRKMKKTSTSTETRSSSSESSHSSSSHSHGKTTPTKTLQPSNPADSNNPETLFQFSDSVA

[24] = target: GABA-A receptor; anion channel (Rattus norvegicus) (UniProt O09028+P15431+P18506+P18508+P19969+P20236+P23574+P23576+P28471+P28473+P30191+P62813+P63079+P63138+Q91ZM7+Q9ES14); details: Compound concentration 10.0 uM
[25] = target: Mitogen-activated protein kinase 7 (Homo sapiens) (UniProt Q13164); details: Compound concentration 1000.0 nM
[26] = target: Serine/threonine-protein kinase PAK 3 (Homo sapiens) (UniProt O75914); details: Compound concentration 1000.0 nM
[27] = target: Serine/threonine-protein kinase WNK4 (Homo sapiens) (UniProt Q96J92); details: Compound concentration 1000.0 nM
[28] = target: Fibroblast growth factor receptor 4 (Homo sapiens) (UniProt P22455); details: Compound concentration 1000.0 nM
[29] = target: Insulin receptor (Homo sapiens) (UniProt P06213); details: Compound concentration 1000.0 nM
[30] = target: Calcium/calmodulin-dependent protein kinase type 1B (Homo sapiens) (UniProt Q6P2M8); details: Compound concentration 1000.0 nM
[31] = target: Mitogen-activated protein kinase 1 (Homo sapiens) (UniProt P28482); details: Compound concentration 1000.0 nM
[32] = target: Serine/threonine-protein kinase SIK3 (Homo sapiens) (UniProt Q9Y2K2); details: Compound concentration 1000.0 nM
Serine/threonine-protein kinase SIK3 (Homo sapiens), sequence (Q9Y2K2 whole entry, looked up): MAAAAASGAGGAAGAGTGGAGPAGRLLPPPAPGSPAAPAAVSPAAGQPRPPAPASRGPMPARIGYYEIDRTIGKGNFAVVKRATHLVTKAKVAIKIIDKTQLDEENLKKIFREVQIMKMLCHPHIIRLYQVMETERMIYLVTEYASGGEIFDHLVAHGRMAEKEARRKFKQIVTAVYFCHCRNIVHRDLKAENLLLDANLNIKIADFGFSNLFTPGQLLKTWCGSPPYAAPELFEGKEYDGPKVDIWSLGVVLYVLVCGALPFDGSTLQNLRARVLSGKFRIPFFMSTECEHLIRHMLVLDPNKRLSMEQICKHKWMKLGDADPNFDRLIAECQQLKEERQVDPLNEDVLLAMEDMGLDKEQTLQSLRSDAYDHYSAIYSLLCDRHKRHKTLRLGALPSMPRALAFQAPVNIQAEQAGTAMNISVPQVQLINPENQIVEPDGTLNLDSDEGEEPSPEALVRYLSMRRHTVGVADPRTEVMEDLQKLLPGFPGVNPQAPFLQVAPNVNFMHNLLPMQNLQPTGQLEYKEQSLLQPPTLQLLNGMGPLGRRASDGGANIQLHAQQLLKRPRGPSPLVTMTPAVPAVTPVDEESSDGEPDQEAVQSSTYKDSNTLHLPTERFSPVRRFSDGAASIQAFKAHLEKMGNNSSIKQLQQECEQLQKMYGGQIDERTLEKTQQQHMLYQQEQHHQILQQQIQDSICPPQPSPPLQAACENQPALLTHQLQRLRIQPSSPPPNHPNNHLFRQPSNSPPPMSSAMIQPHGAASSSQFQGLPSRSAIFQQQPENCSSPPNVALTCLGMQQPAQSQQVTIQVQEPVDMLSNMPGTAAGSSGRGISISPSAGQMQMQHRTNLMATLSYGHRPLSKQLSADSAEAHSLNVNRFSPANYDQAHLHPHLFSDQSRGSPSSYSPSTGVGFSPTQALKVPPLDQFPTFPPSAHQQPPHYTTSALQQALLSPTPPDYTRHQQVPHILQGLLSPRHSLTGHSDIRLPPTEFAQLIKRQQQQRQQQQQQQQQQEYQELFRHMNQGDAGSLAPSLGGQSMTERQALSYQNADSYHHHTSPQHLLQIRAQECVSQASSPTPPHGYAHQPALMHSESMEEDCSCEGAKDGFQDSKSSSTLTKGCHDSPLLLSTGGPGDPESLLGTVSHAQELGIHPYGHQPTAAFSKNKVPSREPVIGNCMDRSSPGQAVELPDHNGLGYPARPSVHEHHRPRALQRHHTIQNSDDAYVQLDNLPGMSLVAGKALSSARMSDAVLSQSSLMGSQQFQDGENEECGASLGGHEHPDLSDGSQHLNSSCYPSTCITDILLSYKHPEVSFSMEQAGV

[33] = target: Mitogen-activated protein kinase kinase kinase kinase 5 (Homo sapiens) (UniProt Q9Y4K4); details: Compound concentration 1000.0 nM
[34] = target: Cyclin-dependent kinase 7 (Homo sapiens) (UniProt P50613); details: Compound concentration 1000.0 nM
[35] = target: Tyrosine-protein kinase Fgr (Homo sapiens) (UniProt P09769); details: Compound concentration 1000.0 nM
[36] = target: Serine/threonine-protein kinase Nek11 (Homo sapiens) (UniProt Q8NG66); details: Compound concentration 1000.0 nM
[37] = target: Mitogen-activated protein kinase kinase kinase 19 (Homo sapiens) (UniProt Q56UN5); details: Compound concentration 1000.0 nM
[38] = target: Ribosomal protein S6 kinase beta-1 (Homo sapiens) (UniProt P23443); details: Compound concentration 1000.0 nM
[39] = target: Serine/threonine-protein kinase WNK2 (Homo sapiens) (UniProt Q9Y3S1); details: Compound concentration 1000.0 nM
[40] = target: Tyrosine-protein kinase ITK/TSK (Homo sapiens) (UniProt Q08881); details: Compound concentration 1000.0 nM
[41] = target: Ribosomal protein S6 kinase alpha-3 (Homo sapiens) (UniProt P51812); details: Compound concentration 1000.0 nM
[42] = target: Receptor-type tyrosine-protein kinase FLT3 (Homo sapiens) (UniProt P36888); details: Compound concentration 1000.0 nM
[43] = test system: Tyrosine-protein kinase ABL1 (Homo sapiens), P00519 [F317I]; details: Compound concentration 1000.0 nM
Tyrosine-protein kinase ABL1 (Homo sapiens), P00519 [F317I], sequence (P00519 whole entry F317I): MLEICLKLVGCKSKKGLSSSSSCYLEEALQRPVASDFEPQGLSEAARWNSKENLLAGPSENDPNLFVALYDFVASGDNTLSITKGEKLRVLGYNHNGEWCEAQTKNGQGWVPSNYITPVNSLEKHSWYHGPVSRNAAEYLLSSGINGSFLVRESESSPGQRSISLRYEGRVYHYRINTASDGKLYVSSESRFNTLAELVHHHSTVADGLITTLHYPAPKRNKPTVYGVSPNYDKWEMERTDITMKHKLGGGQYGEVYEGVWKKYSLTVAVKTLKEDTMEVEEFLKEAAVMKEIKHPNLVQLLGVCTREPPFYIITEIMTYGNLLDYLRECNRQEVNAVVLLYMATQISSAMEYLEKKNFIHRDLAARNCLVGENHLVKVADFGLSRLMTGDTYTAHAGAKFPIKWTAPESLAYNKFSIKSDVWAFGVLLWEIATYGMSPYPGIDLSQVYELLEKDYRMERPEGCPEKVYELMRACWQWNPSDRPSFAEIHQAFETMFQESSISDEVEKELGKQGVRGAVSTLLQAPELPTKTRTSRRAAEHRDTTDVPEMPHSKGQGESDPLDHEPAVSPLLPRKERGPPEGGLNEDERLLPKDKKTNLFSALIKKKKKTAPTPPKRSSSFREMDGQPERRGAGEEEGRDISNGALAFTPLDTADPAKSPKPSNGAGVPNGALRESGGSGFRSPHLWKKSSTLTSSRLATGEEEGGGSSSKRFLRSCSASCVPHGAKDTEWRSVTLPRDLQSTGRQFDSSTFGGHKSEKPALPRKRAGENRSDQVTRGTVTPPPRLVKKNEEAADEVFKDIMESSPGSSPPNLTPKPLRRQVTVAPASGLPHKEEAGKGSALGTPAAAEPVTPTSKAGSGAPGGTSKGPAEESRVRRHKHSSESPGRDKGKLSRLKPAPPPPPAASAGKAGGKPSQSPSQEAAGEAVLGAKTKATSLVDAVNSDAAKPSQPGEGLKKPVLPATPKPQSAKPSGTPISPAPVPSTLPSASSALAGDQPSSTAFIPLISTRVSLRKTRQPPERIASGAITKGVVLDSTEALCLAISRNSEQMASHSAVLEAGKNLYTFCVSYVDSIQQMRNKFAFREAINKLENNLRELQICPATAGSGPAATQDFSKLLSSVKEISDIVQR

[44] = target: Tyrosine-protein kinase receptor UFO (Homo sapiens) (UniProt P30530); details: Compound concentration 1000.0 nM

Serine/threonine-protein kinase OSR1 (Homo sapiens), sequence (O95747 2-527 limits assumed): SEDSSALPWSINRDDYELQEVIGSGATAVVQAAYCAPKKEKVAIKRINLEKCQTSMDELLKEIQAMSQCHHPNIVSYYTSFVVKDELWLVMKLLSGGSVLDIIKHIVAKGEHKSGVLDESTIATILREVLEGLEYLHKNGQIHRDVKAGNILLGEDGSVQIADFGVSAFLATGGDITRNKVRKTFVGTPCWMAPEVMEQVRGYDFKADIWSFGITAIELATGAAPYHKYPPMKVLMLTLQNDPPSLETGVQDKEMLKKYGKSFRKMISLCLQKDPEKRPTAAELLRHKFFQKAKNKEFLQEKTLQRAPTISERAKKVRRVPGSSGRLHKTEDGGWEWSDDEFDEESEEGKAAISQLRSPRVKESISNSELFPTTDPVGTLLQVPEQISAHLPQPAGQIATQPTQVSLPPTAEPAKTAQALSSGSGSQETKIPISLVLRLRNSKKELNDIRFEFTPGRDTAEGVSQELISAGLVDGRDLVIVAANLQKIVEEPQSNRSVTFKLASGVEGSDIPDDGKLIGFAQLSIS

SMILES: O=C(O)[C@@H]1[C@@H](Cn2nnc3ccccc3c2=O)CC[C@H]1C(=O)c1ccc(OCCC2CCOCC2)cc1 [BAY-694]
- residual activity [1]: 100%
- residual activity [2]: 100%
- residual activity [3]: 100%
- inhibition [4]: -7.11%
- residual activity [5]: 90%
- residual activity [6]: 100%
- residual activity [7]: 100%
- residual activity [8]: 99%
- residual activity [9]: 100%
- residual activity [10]: 62%
- residual activity [11]: 76%
- residual activity [12]: 93%
- inhibition [13]: 1.33%
- inhibition [14]: 17.5%
- residual activity [15]: 100%
- residual activity [16]: 100%
- residual activity [17]: 100%
- residual activity [18]: 85%
- residual activity [19]: 100%
- residual activity [20]: 80%
- inhibition [21]: 6.29%
- residual activity [22]: 98%
- residual activity [23]: 100%
- inhibition [24]: 10.2%
- residual activity [25]: 100%
- residual activity [26]: 99%
- residual activity [27]: 75%
- residual activity [28]: 99%
- residual activity [29]: 85%
- residual activity [30]: 67%
- residual activity [31]: 93%
- residual activity [32]: 84%
- residual activity [33]: 100%
- residual activity [34]: 86%
- residual activity [35]: 100%
- residual activity [36]: 100%
- residual activity [37]: 84%
- residual activity [38]: 100%
- residual activity [39]: 82%
- residual activity [40]: 87%
- residual activity [41]: 100%
- residual activity [42]: 86%
- residual activity [43]: 100%
- residual activity [44]: 100%

SMILES: O=C(O)[C@H]1[C@H](Cn2nnc3ccccc3c2=O)CC[C@@H]1C(=O)c1ccc(OCCC2CCOCC2)cc1 [BAY-7598]
- residual activity [1]: 100%
- residual activity [2]: 77%
- residual activity [3]: 100%
- inhibition [4]: -5.24%
- residual activity [5]: 100%
- residual activity [6]: 76%
- residual activity [7]: 100%
- residual activity [8]: 78%
- residual activity [9]: 98%
- residual activity [10]: 71%
- residual activity [11]: 100%
- residual activity [12]: 96%
- inhibition [13]: 6.91%
- inhibition [14]: 12.6%
- residual activity [15]: 83%
- residual activity [16]: 88%
- residual activity [17]: 73%
- residual activity [18]: 96%
- residual activity [19]: 55%
- residual activity [20]: 72%
- inhibition [21]: 7.47%
- residual activity [22]: 98%
- residual activity [23]: 100%
- inhibition [24]: 7.4%
- residual activity [25]: 100%
- residual activity [26]: 86%
- residual activity [27]: 91%
- residual activity [28]: 100%
- residual activity [29]: 78%
- residual activity [30]: 46%
- residual activity [31]: 100%
- residual activity [32]: 61%
- residual activity [33]: 92%
- residual activity [34]: 95%
- residual activity [35]: 86%
- residual activity [36]: 100%
- residual activity [37]: 78%
- residual activity [38]: 100%
- residual activity [39]: 99%
- residual activity [40]: 100%
- residual activity [41]: 81%
- residual activity [42]: 96%
- residual activity [43]: 100%
- residual activity [44]: 100%
